Measured values taken from patent US20100286093A1, “ANTI-INFLAMMATORY COMPOSITION CONTAINING DOCOSAHEXAENOYL LYSOPHOSPHATIDYLAMINE AS AN ACTIVE INGREDIENT” (The Industry & Academic Cooperation in Chungnam National …, priority 2009, published 2010).

Legend:
[1] = test system: zymosan A induced plasma leakage; assay: Zymosan A induced plasma leakage in peritoneal fluid (Evans blue), intraperitoneal injection; type: in vivo, mice; details: i.p.
Protocol: The present inventors intraperitoneally injected docosahexaenoyl lysophosphatidylcholine or 17-HPDHA lysophosphatidylcholine (docosahexaenoyl lysophosphatidylcholine oxide) into mice at the concentration of 15˜150 μg/kg. The control group was injected with 50˜100 ul of saline. 2 Hours later, 0.5% Evans Blue dye solution (0.2 ml) was injected through tail vein, followed by intraperitoneal injection of 100 ul of zymosan A (1 mg/ml) dissolved in saline. 30 minutes later, the mice were slightly anesthetized with ether or fluorine, followed by neck dissection. 4 ml of ice-cold PBS was injected into abdominal cavity and peritoneal fluid was recovered by using a plastic syringe, followed by centrifugation (3,000 rpm, 10 minutes). Exudation of Evans blue was measured to evaluate anti-inflammatory effect.

[2] = test system: zymosan A induced plasma leakage; assay: Zymosan A induced plasma leakage in peritoneal fluid (Evans blue), intravenous injection; type: in vivo, mice
Protocol: To investigate inhibitory effect of docosahexaenoyl lysophosphatidylcholine on peritonitis induced by zymosan, the present inventors induced inflammation in abdominal cavity by injecting zymosan A (saccharomyces cerevisiae) (Sigma-Aldrich Corp, St. Louis, Mo., USA), and then administered lysophosphatidylcholine, followed by evaluation of anti-inflammatory effect. Particularly, SPF mice (6 weeks, male) were adapted for 12 hours and then raised in an animal laboratory at College of Pharmacy under 12/12 hour dark/light cycle. Then, the mice were used for intra-abdominal inflammatory response experiment. First, each experimental group was composed of 5˜10 mice, to which 10˜500 μg/kg of each lysophosphatidylcholine was injected through tail vein. The control group was injected with 50˜100 ul of saline. 30 minutes later, 0.5% Evans blue dye solution (0.2 ml) was injected through tail vein and then 100 ul of zymosan A (1 mg/ml) dissolved in saline was injected into abdominal cavity. 30 minutes after the administration, the mice were anesthetized lightly with ether or fluorine, followed by neck dissection. 4 ml of ice-cold PBS was injected into abdominal cavity and peritoneal fluid was recovered by using a plastic syringe, followed by centrifugation (3,000 rpm, 10 minutes). Supernatant was obtained from the centrifugation, with which exudation of Evans blue was measured by spectrophotometer at 620 nm to evaluate anti-inflammatory effect (Arita M, et al., Proc Natl Acad Sci USA. 2005 May 24; 102(21):7671-6; Takenaka M, et al., Biol Pharm Bull. 2005 July; 28(7):1291-3).
The present inventors measured time-dependent anti-inflammatory effect (inhibitory effect on zymosan A induced plasma leakage) of each lysophosphatidylcholine. Particularly, docosahexaenoyl lysophosphatidylcholine (50 μg/kg) was injected to mice through tail vein at different time intervals (15 minutes—120 minutes; […], 30 minutes, 60 minutes and 120 minutes before zymosan A administration). After administrating zymosan A ([…]) via intraperitoneal injection, Evans blue was treated, followed by measuring plasma leakage in peritoneal fluid.
Particularly, docosahexaenoyl lysophosphatidylcholine (50 μg/kg), docosahexaenoic acid (50 μg/kg) or 17-HPDHA lysophosphatidylcholine (17(S)-hydroperoxy-4,7,10,13,15,19-docosahexaenoyl lysophosphatidylcholine) were compared. Soybean LOX-1 (200 units/ml) was added in borax buffer (50 mM, pH 9.0) containing docosahexaenoyl lysophosphatidylcholine (20 uM), followed by reaction at 25° C. for 30 minutes, which was passed through C18 column (2×1 cm) and eluted with methanol (Huang L S, et al., J Agric Food Chem. 2008 Sep. 10; 56(17):7808-14)] (50 μg/kg) was treated to mice 30 minutes before zymosan A injection. 30 minutes later, plasma leakage in peritoneal fluid was measured.
The present inventors intravenously injected docosahexaenoyl lysophosphatidylethanolamine into mice at the concentration of 15˜150 μg/kg. 30 Min later, 100 ul of zymosan A(1 mg/ml) was treated thereto to induce inflammation in abdominal cavity. After administering 0.5% Evans blue, plasma leakage in peritoneal fluid was measured.

RAW 264.7 cells = assay: LPS induced NO generation in RAW 264.7 cells (Griess reagent); type: cell-based
From the text: Macrophages are known to play an important role in inflammatory response and host defense. When macrophages are activated by lipopolysaccharide (LPS), a huge amount of NO (nitric oxide) is generated, which is mediated by inducible nitric oxide synthase (iNOS).
Based on that, the present inventors observed how unsaturated fatty acid containing lysophosphatidylcholine (lysoPC) affected the generation of NO, the inflammation mediator, induced by LPS in RAW 264.7 cells. Particularly, RAW 264.7 cells (5×10^4/well) were pre-cultured with each polyunsaturated lysophosphatidylcholine; linoleoyl lysophosphatidylcholine, arachidonoyl lysophosphatidylcholine and docosahexaenoyl lysophosphatidylcholine [prepared by the co-treatment with diacyl phosphatidylcholine (Avanti Polar Lipids, Alabaster, Ala., USA) and phospholipase A2 (PLA2, Sigma-Aldrich Corp, St. Louis, Mo., USA) (Croset, M. et al., Biochem. J. 2000, 345, 61-67; Adachi, J. et al., Kobe. J. Med. Sci. 2006, 52, 127-140)] (0˜60 uM) at 37° C. for 2 hours. Then, LPS (1 μg/ml) was added thereto, followed by culture for 20 hours under the same conditions as the above. […] Then, OD540 was measured to measure NO generation (Green L C, et al., Anal Biochem. 1982 October; 126(1):131-8).

17(S)-hydroperoxy-4,7,10,13,15,19-docosahexaenoyl lysophosphatidylcholine [17-HPDHA lysophosphatidylcholine]
inhibitory effect on zymosan induced plasma leakage ([1]; 15 μg/kg or higher, 2 hours before zymosan A): significant | effectiveness in comparison with docosahexaenoyl lysophosphatidylcholine ([1]; 15~150 μg/kg): somewhat more effective than docosahexaenoyl lysophosphatidylcholine | inhibition of zymosan induced plasma leakage, dose dependence ([1]; up to 150 μg/kg): dose-dependent | inhibitory effect on plasma leakage (metabolite comparison) ([2]; 50 μg/kg, 30 minutes before zymosan A injection, compared to docosahexaenoyl lysophosphatidylcholine): a greater inhibitory effect

CCCCC/C=C\C/C=C\CCCCCCCC(=O)OC[C@@H](O)COP(=O)([O-])OCC[N+](C)(C)C [linoleoyl lysophosphatidylcholine, reference compound]
inhibitory effect on NO generation induced by LPS (RAW 264.7 cells; up to 60 uM): did not show any significant inhibitory effect | inhibition of zymosan induced plasma leakage, dose dependence ([2]; i.v., up to 500 μg/kg): did not show inhibitory effect

arachidonoyl lysophosphatidylcholine [reference compound]
inhibition of NO generation induced by LPS (RAW 264.7 cells; 60 uM): ≤ 20% | reduction of zymosan induced plasma leakage ([2]; 50 μg/kg i.v.): reduced plasma leakage significantly | reduction of zymosan induced plasma leakage ([2]; 150 μg/kg i.v.): more peculiar | reduction of zymosan induced plasma leakage ([2]; 500 μg/kg i.v., versus 150 μg/kg): this effect was not increased any more

docosahexaenoyl lysophosphatidylethanolamine
inhibitory effect on zymosan A induced plasma leakage ([2]; i.v., 50 μg/kg or higher, 30 min before zymosan A): significant inhibitory effect | inhibition of zymosan A induced plasma leakage, dose dependence ([2]; i.v., up to 150 μg/kg): inhibited zymosan A induced plasma leakage dose-dependently
